{"source": "paper PMC6260619", "about": "“Selective Cytotoxicity of Goniothalamin against Hepatoblastoma HepG2 Cells” (Molecules, 2011)", "format_in_all_cases": "cell-based, human", "key": {"HepG2 cells [1]": {"tested_on": "HepG2 cells", "experiment": "LDH leakage assay, HepG2", "conditions": "for IC50: Homo sapiens, read-out: IC50 from LDH", "procedure": "Measurement of LDH activity is another indicator of cell viability through evaluation of the cell membrane permeability. The enzyme activity is measured externally, as it leaks from dead cells which lose their membrane integrity. LDH leakage detection is based on the loss of NADH due to its oxidation to NAD^+, resulting in the conversion of pyruvate to lactate. Untreated cells should retain LDH in their cells and have minimal loss over the time of the assay. Triton X-100-treated cells that give the maximum loss of LDH were used as the positive control in this assay.\nTo determine the effect of goniothalamin on membrane permeability in HepG2 and Chang cell lines, a lactate dehydrogenase (LDH) release assay was used. The cells were seeded in 96-well culture plates at a density of 2 × 10^4 cells/well in 100 μL volume and allowed to grow for 18 hours before treatment. After treatment, the plates were incubated for 24, 48 and 72 hours, respectively. Then, the supernatant (40 μL) was transferred to a new 96 well to determine LDH release and 6% triton X-100 (40 μL) was added to the original plate for determination of total LDH. An aliquot of 0.1 M potassium phosphate buffer (100 μL, pH 7.5) containing 4.6 mM pyruvic acid was mixed to the supernatant using repeated pipetting. Then, 0.1 M potassium phosphate buffer (100 μL, pH 7.5) containing 0.4 mg/mL reduced β-NADH was added to the wells. The kinetic changes were read for 1 min using ELISA microplate reader in absorbance at wavelength 340 nm. This procedure was repeated with 40 μL of the total cell lysate to determine total LDH U/well. A change of 0.001 absorbance units/min is equivalent to 1 U/L of LDH activity. The percentage of LDH release was determined by dividing the LDH released into the media by the total LDH following cell lysis in the same well."}, "HepG2 cells [2]": {"tested_on": "HepG2 cells", "experiment": "Cell cycle PI analysis by flow cytometry, HepG2", "procedure": "The ability of a substance to affect specific phases of the cell cycle may provide clues as to its mechanism(s) of action. To determine the effects of goniothalamin on the cell cycle, HepG2 cells were treated with IC50 levels of goniothalamin (determined from the MTT assay) for 24, 48 and 72 hours, respectively. The cells were stained with PI and the DNA contents analyzed by flow cytometry.\n(§1) The treated cells were trypsinized and washed with PBS. After centrifugation, the supernatant was removed. Then, 1 × 10^6 cells were harvested and fixed in ice-cold ethanol (70%). The fixed cells were centrifuged at high speed (180 × g) for 10 minutes to adequately pellet down the cells that were suspended in the ethanol. The pellet was washed by the ice-cold PBS and then centrifuged again at 180 × g for 10 minutes. The final pellet was resuspended with 1 mL of RNase and incubated at 37 °C for 30 minutes. At the end of incubation, DNA binding dye PI (1 mg/mL) was added to give a final concentration of 50 µg/mL. The mixture was incubated at room temperature for 10 min in the dark. Data acquisition and analysis were performed in by flow cytometry FACS Calibur flow cytometer (Becton Dickinson, Franklin Lakes, NJ, USA) using CellQuest 3.3 software."}, "Chang cells [3]": {"tested_on": "Chang cells", "experiment": "Cell cycle PI analysis by flow cytometry, Chang", "procedure": "The effect of goniothalamin on the cell cycle distribution of non-malignant Chang cells was also assessed. […] Accordingly, goniothalamin induced a marked apoptosis in a time-dependent manner at IC50 concentrations. As expected, the increase in the apoptotic population was associated with a concomitant enlargement of the pre-phase population, as observed in cell cycle analysis.\nas §1"}, "Chang cells [4]": {"tested_on": "Chang cells", "experiment": "BrdU cell proliferation ELISA, Chang", "procedure": "The inhibition of goniothalamin on cellular DNA synthesis in Chang cells was also measured by BrdU incorporation.\nTo confirm anti-proliferative effects in goniothalamin-treated cells, BrdU cell proliferation kit was used. HepG2 and Chang cells were seeded at 1.5 × 10^5 cells/mL in a final volume of 100 μL in a 96-well culture dish and incubated overnight to allow the cells to adhere to the dish. Each sample was assayed in triplicate. Besides, the control samples include a blank (no cells) and background (cells without BrdU) was also prepared. […] Then, BrdU label (20 μL, diluted by 1/2,000 in media) was added to each well and incubated for 24 h at 37 °C. The media was discarded and replaced by fix/denaturing solution (200 μL). The plate was incubated for 30 min at room temperature. The fix/denaturing solution was removed by inverting the plate. Then, BrdU antibody (100 μL, diluted by 1/100 in dilution buffer) was added to each well and left for 1 hour at room temperature. The cells were washed 3 times with wash buffer. After that, secondary antibody (100 μL, anti-mouse IgG HRP conjugated) was added to each well for 30 min. The washing step was done three times with wash buffer and once with distilled water. The distilled water was removed and substrate solution (100 μL) was added to each well. The plate was left for 15 min at room temperature in the dark condition. Finally, stop solution (100 μL) was added to the wells and absorbance measured at 450–540 nm."}, "[5]": {"conditions": "HepG2, 24h, at IC50 (goniothalamin 9.2 µM; doxorubicin 2.2 µM)"}, "[6]": {"conditions": "HepG2, 48h, at IC50 (goniothalamin 8.3 µM; doxorubicin 4.3 µM)"}, "[7]": {"conditions": "HepG2, 72h, at IC50 (goniothalamin 4.6 µM; doxorubicin […])"}, "[8]": {"conditions": "24h, at IC50 (goniothalamin 79.10 µM; doxorubicin 0.83 µM)"}, "[9]": {"conditions": "48h, at IC50 (goniothalamin 63.75 µM; doxorubicin 0.41 µM)"}, "[10]": {"conditions": "72h, at IC50 (goniothalamin 35.01 µM; doxorubicin 0.28 µM)"}}, "note": "Where two headings read alike, the source gives them in different places."}
{"smiles": "O=C1C=CC[C@H](/C=C/c2ccccc2)O1", "note": "[Goniothalamin, 5-hydroxy-7-phenylhepta-2,6-dienoic acid lactone]", "values": [{"measurement": "death percentage compared to Triton X-100-treated cells", "setting": "HepG2 cells [1]; HepG2, 4.6 µM, 72 hours", "value": 50, "unit": "%"}, {"measurement": "LDH leakage", "setting": "HepG2 cells [1]; HepG2, 9.4 µM, 72 hours, relative to Triton X-100 maximum", "value": 62, "unit": "%"}, {"measurement": "LDH leakage", "setting": "HepG2 cells [1]; HepG2, 37.5 µM, 24 hours", "value": 60, "unit": "%"}, {"measurement": "LDH leakage", "setting": "HepG2 cells [1]; HepG2, 37.5 µM, 48 hours", "value": 70, "unit": "%"}, {"measurement": "LDH leakage", "setting": "HepG2 cells [1]; HepG2, 37.5 µM, 72 hours", "value": 70, "unit": "%"}, {"measurement": "LDH leakage", "setting": "HepG2 cells [1]; HepG2, 150 µM, 24 hours", "value": 80, "unit": "%"}, {"measurement": "LDH leakage", "setting": "HepG2 cells [1]; HepG2, 150 µM, 48 hours", "value": 86, "unit": "%"}, {"measurement": "LDH leakage", "setting": "HepG2 cells [1]; HepG2, 150 µM, 72 hours", "value": 93, "unit": "%"}, {"measurement": "IC50", "setting": "HepG2 cells [1]; HepG2, 24 hours", "value": 13.4, "unit": "µM"}, {"measurement": "IC50", "setting": "HepG2 cells [1]; HepG2, 48 hours", "value": 8.29, "unit": "µM"}, {"measurement": "IC50", "setting": "HepG2 cells [1]; HepG2, 72 hours", "value": 5.2, "unit": "µM"}, {"measurement": "G0/G1", "setting": "HepG2 cells [2]; [5]", "value": "68.92 ± 1.27", "unit": "%"}, {"measurement": "G2+M", "setting": "HepG2 cells [2]; [5]", "value": "5.94 ± 0.22", "unit": "%"}, {"measurement": "S", "setting": "HepG2 cells [2]; [5]", "value": "7.68 ± 0.12", "unit": "%"}, {"measurement": "SubG0/G1", "setting": "HepG2 cells [2]; [5]", "value": "17.44 ± 1.67", "unit": "%"}, {"measurement": "G0/G1", "setting": "HepG2 cells [2]; [6]", "value": "39.71 ± 3.50", "unit": "%"}, {"measurement": "G2+M", "setting": "HepG2 cells [2]; [6]", "value": "5.67 ± 4.13", "unit": "%"}, {"measurement": "S", "setting": "HepG2 cells [2]; [6]", "value": "8.03 ± 0.29", "unit": "%"}, {"measurement": "SubG0/G1", "setting": "HepG2 cells [2]; [6]", "value": "46.59 ± 2.79", "unit": "%"}, {"measurement": "G0/G1", "setting": "HepG2 cells [2]; [7]", "value": "31.79 ± 5.82", "unit": "%"}, {"measurement": "G2+M", "setting": "HepG2 cells [2]; [7]", "value": "2.31 ± 4.19", "unit": "%"}, {"measurement": "S", "setting": "HepG2 cells [2]; [7]", "value": "7.07 ± 0.18", "unit": "%"}, {"measurement": "SubG0/G1", "setting": "HepG2 cells [2]; [7]", "value": "58.83 ± 2.09", "unit": "%"}, {"measurement": "SubG0/G1", "setting": "HepG2 cells [2]; HepG2, 72h, at IC50 (goniothalamin 4.6 µM; doxorubicin […]), listed as goniothalamin", "value": 59, "unit": "%"}, {"measurement": "G0/G1", "setting": "Chang cells [3]; [8]", "value": "55.08 ± 3.60", "unit": "%"}, {"measurement": "G2+M", "setting": "Chang cells [3]; [8]", "value": "14.89 ± 5.53", "unit": "%"}, {"measurement": "S", "setting": "Chang cells [3]; [8]", "value": "12.65 ± 2.79", "unit": "%"}, {"measurement": "SubG0/G1", "setting": "Chang cells [3]; [8]", "value": "17.38 ± 7.29", "unit": "%"}, {"measurement": "G0/G1", "setting": "Chang cells [3]; [9]", "value": "58.68 ± 9.45", "unit": "%"}, {"measurement": "G2+M", "setting": "Chang cells [3]; [9]", "value": "2.5 ± 5.89", "unit": "%"}, {"measurement": "S", "setting": "Chang cells [3]; [9]", "value": "5.82 ± 0.16", "unit": "%"}, {"measurement": "SubG0/G1", "setting": "Chang cells [3]; [9]", "value": "33.00 ± 3.40", "unit": "%"}, {"measurement": "G0/G1", "setting": "Chang cells [3]; [10]", "value": "11.60 ± 0.07", "unit": "%"}, {"measurement": "G2+M", "setting": "Chang cells [3]; [10]", "value": "2.5 ± 0.44", "unit": "%"}, {"measurement": "S", "setting": "Chang cells [3]; [10]", "value": "4.91 ± 0.13", "unit": "%"}, {"measurement": "SubG0/G1", "setting": "Chang cells [3]; [10]", "value": "80.99 ± 0.64", "unit": "%"}, {"measurement": "percentage of cells incorporating BrdU in comparison with untreated cells", "setting": "Chang cells [4]; IC50, 24 hours", "value": 62.4, "unit": "%"}, {"measurement": "percentage of cells incorporating BrdU in comparison with untreated cells", "setting": "Chang cells [4]; IC50, 72 hours", "value": 23.5, "unit": "%"}, {"measurement": "decrease in cell proliferation compared to untreated cells (BrdU)", "setting": "Chang cells [4]; lowest concentration (2.3 µM), 72 hours", "value": 2, "unit": "%"}, {"measurement": "cell proliferation retained (BrdU)", "setting": "Chang cells [4]; lowest concentration (2.3 µL as printed), 72 hours", "value": 97.6, "unit": "%"}]}
